From US12558326B2, “Method for treating epilepsy” (Xenon Pharmaceuticals Inc., priority 2018, dated 2026)
Several values for one entry are separate records, joined by “and”; a condition that tells them apart may be missing. Equal entries are not always repeated.

Columns and labels:
MES test = conditions: in vivo; cited from earlier work
6 Hz model = conditions: 30 min after i.p. injection; cited from earlier work
[1] = Brain and plasma distribution after the 6 Hz assay (UHPLC-ESI-MS/MS); assay type: in vivo, mouse; conditions: 20 mg/kg IP, total concentration, sampled immediately after 6 Hz assay (one hour post dose)
Experimental: Pharmacological distribution and bioanalysis. Immediately following characterization of seizure behaviors in the 6 Hz assay, animals were humanely sacrificed and brain and plasma samples were collected for analysis of the distribution of the administered compounds to these tissue compartments.
Brain sample homogenization. Pre-weighed whole mouse brains were thawed and 1 mL of deionized water and 1 mL of acetonitrile were added to each sample vial containing brain tissue. The samples were homogenized using a hand-held Omni™ TH homogenizer (Omni International, Kennesaw, GA, USA) until a uniform slurry was obtained. 1 mL aliquots of the slurry were transferred to clean 1.5 mL plastic Eppendorf tubes and the tubes were centrifuged at 13,000 rpm (15,871×g) for 20 minutes. The supernatant was collected and stored in clean labelled plastic Eppendorf vials at −80° C.
Mouse plasma and brain homogenate sample preparation. Mouse brain homogenates and mouse plasma samples, as well as calibration standards and QC samples prepared from control (“blank”) untreated mouse plasma, were extracted by protein precipitation. Briefly, 50 μL of each brain homogenate and mouse plasma sample (as well as each calibration standard, QC sample and blank mouse plasma sample) was mixed with 50 μL of internal standard solution [a 2,500 ng/mL solution of (S)-5-((1-benzylpyrrolidin-3-yl)(methyl)amino)-6-methyl-N-(thiazol-4-yl)pyridine-2-sulfonamide in deionized water/acetonitrile (1:1 v/v)], followed by addition of 50 μL of 6% (v/v) phosphoric acid in water. This was followed by the addition of 200 μL of acetonitrile. The samples were vortexed for 30 seconds and then centrifuged for 20 min at 13,000 rpm (15,871×g). The supernatants were further diluted four-fold with acetonitrile:water (1:1 v/v) and transferred to a 96-well plate prior to analysis. Calibration and QC samples were prepared in blank K2EDTA mouse plasma in the concentration range from 2.3 ng/mL to 4800 ng/mL with QC samples, including low QC (14 ng/mL), mid QC (225 ng/mL), and high QC (3600 ng/mL).
UHPLC-ESI-MS/MS analysis. Samples were then analyzed by ultra-high pressure liquid chromatography/electrospray ionization tandem mass spectroscopy (UHPLC-ESI MS/MS) using a Sciex™ TQ-5500 (AB Sciex™ LP, Concord, ON, Canada) mass spectrometer equipped with a Shimadzu Nexera™ UHPLC pump, column compartment and auto-sampler (Shimadzu Scientific Instruments, Inc., Columbia, MD, USA), using a binary gradient elution starting with 80% water (A)/20% acetonitrile (B), both solvents containing 0.1% formic acid. After 0.6 minutes, mobile phase B was increased linearly to 100% to 1 minute and elution was maintained at 100% mobile phase B until 1.5 minutes, and then allowed to re-equilibrate at the initial ration of 80% mobile phase A and 20% mobile phase B for a total run time of 2.5 minutes at a flow rate of 0.4 mL/min. The column used was ACE Excel™ 2 C18-PFP (2.1 mm i.d.×[…], 2 μm particle size)(Advanced Chromatography Technologies Ltd, Aberdeen, Scotland). The analytes and the internal standard were ionized by electrospray in the positive ion mode and detected by multiple reaction monitoring (MRM) using the transitions listed in Table 1.

CF-1 mice = experiment: 6 Hz seizure test (44 mA, 3 sec, corneal electrodes) in vivo; set-up: species or system mouse; conditions: 20 mg/kg IP; for percentage of animals protected against psychomotor seizures: one hour before assay, 6 Hz 44 mA, n=16 per group
Description: This assay tests the ability of a test compound to block a psychomotor seizure induced by long-duration, low frequency (6 Hz) stimulation, and provides an art-accepted model of therapy-resistant partial seizure (Brown et al., 1953 J. Pharmacol. Exp. Therapeut. 107(3):273-283; White H S, Woodhead J H, Wilcox K S, General principles: discovery and preclinical development of antiepileptic drugs, In: Levy R H, Mattson R H, Meldrum B S, Perucca E, editors. Antiepileptic drugs 5th ed Philadelphia: Lippincott Williams & Wilkins; 2002. pp. 36-48; Hartman et al., 2008 Epilepsia 49(2):334-339).
Methods. Adult male CF1 mice (18-25 g) are pretreated intraperitoneally (i.p.) with the test compound at a dose of 20-100 mg/kg. If toxicity is noted in a pre-test screen for toxic effects when the test compound is administered i.p. at varying dosages, the dose is modified to avoid overt toxic effects. Each treatment group (n=4-16 mice/group) is examined for anticonvulsive effects at one or more of five time points (¼, ½, 1, 2, and 4 hr) after treatment with the test compound. Following pretreatment, each mouse receives a drop of 0.5% tetracaine hydrochloride applied to each eye. The mouse is then challenged with low-frequency (6 Hz) stimulation for 3 sec delivered through corneal electrodes. The low-frequency, long-duration stimuli are initially delivered at 32 mA intensity. Animals are manually restrained and released immediately following the stimulation and observed for the presence or absence of seizure activity. If the test compound is effective in the 32 mA screen, an additional assay is performed in which the stimulation current is increased to 44 mA but otherwise using the same protocol as described above. For dose-response studies, an n of 8 mice is used per dose and a dose-response curve is generated at the time of peak effect (TPE) at the specific stimulation intensity.
Typically, the 6 Hz stimulation results in a seizure characterized by a minimal clonic phase that is followed by stereotyped, automatistic behaviors, including jaw clonus, forelimb clonus, twitching of the vibrissae, and/or Straub-tail. Animals not displaying such behaviors are considered protected. Seizure score can be used as an additional measure of the efficacy of the investigational compound (Racine, R. J. 1972 Electroencephalogr. Clin. Neurophysiol. 32(3):281-294). Data are analyzed by Mann-Whitney U test, with p<0.05 determined to be statistically significant. For data obtained at each time point, results are expressed as the total number of animals protected out of the number of animals tested over time (e.g., 2/4 represents 2 out of 4 mice tested are protected).
In this Example, the in vivo anticonvulsant effects of candidate AEDs were tested in mice using the 6 Hz seizure test. The 6 Hz seizure test was performed essentially as described above in Biological Example 2, with minor modifications as presented here, including data collection at a time point that was one hour after administration of the candidate AEDs.
Compounds: Candidate AED compounds were prepared as described above unless otherwise noted, and were as follows: • Racemic fenfluramine ([rac]-fenfluramine hydrochloride); • (R)-fenfluramine ([R]-(−)-fenfluramine hydrochloride); • Racemic norfenfluramine ([rac]-norfenfluramine) was purchased from Toronto Research Chemicals, North York, Ontario, Canada; • (R)-norfenfluramine ([R]-(−)-norfenfluramine.
Animals: Adult male CF-1 albino mice (25-35 g) purchased from Harlan-Envigo (East Millstone, NJ). The mice were housed four per cage and had access to filtered water and chow ad libitum, throughout the experiment.
Compound Preparation and Administration: All four compounds were solubilized in sterile aqueous saline solution (0.9% NaCl). Compounds were administered to animals (16 mice in each treatment group) via intraperitoneal (IP) injection at 10 ml/kg volume, one hour prior to the assay. Control animals received vehicle (saline) only. […]

5-HT2C receptor = target: T1, 5-HT2C receptor (Homo sapiens, UniProt P28335); conditions: Rothman et al. 2002, 2003; cited from earlier work
T1 sequence (P28335 33-458): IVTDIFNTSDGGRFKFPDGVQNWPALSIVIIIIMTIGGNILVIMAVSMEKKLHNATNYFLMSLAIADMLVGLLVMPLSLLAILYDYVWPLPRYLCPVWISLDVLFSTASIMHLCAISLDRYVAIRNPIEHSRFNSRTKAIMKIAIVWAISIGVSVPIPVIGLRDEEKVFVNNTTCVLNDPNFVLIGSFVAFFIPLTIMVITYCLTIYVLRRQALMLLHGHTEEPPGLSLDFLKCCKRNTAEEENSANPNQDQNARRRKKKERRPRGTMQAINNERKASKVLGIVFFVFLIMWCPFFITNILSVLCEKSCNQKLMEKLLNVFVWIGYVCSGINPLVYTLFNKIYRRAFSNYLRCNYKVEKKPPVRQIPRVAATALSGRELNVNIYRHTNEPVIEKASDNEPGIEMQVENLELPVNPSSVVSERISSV

[2] = test system: norepinephrine (NE) release; conditions: Rothman et al. 2002, 2003; cited from earlier work
5-HT2A receptor = 5-HT2A receptor (Homo sapiens, UniProt P28223); conditions: Rothman et al. 2002, 2003; cited from earlier work
Chain of 5-HT2A receptor (P28223 whole entry): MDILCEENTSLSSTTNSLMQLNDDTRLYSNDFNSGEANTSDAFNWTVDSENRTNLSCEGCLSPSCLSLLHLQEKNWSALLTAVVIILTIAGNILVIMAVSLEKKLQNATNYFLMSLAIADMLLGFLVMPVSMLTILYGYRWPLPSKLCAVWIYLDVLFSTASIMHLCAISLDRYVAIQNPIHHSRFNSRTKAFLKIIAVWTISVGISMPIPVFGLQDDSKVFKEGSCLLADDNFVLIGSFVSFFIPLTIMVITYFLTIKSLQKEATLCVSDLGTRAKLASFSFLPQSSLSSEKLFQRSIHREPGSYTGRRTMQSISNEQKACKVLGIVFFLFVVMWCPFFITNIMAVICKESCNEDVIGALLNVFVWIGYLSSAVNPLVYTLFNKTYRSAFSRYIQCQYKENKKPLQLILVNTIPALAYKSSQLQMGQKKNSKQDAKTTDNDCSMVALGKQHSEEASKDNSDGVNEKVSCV

5-HT2B receptor = 5-HT2B receptor (Homo sapiens, UniProt P41595); conditions: Rothman et al. 2002, 2003; cited from earlier work
Chain of 5-HT2B receptor (P41595 whole entry): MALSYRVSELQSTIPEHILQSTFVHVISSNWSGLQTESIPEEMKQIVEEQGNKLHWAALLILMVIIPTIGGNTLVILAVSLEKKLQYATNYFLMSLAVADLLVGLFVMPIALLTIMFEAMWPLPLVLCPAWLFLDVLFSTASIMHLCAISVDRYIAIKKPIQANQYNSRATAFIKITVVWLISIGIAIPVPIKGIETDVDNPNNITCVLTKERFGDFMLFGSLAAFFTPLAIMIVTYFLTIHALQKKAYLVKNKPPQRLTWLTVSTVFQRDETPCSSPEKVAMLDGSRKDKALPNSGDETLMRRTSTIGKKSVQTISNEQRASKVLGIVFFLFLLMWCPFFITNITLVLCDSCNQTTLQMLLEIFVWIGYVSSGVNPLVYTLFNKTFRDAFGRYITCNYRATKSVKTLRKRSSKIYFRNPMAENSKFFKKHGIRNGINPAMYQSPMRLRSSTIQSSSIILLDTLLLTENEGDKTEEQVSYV

DBA/2 mice = experiment: Audiogenic seizure test in DBA/2 mice; assay type: in vivo, mouse; conditions: 180 mg/kg IP, 30 min prior
Experimental: DBA/2 is a widely used inbred strain of mouse susceptible to audiogenic seizures due to the asp2 mutation. […] The objective of this study was to evaluate the anticonvulsant activity of (R/S)-fenfluramine and to compare it to (R)-fenfluramine in the DBA/2 mouse.
The method follows that described by Dilrmuiller et al., Neuroreport 4(6):683-686. Mice (DBA/2, 3-4 weeks old) were individually transferred (at 3-5 minute intervals) from the preparation room into an adjacent experimental room and placed in a Plexiglas™ jar (Diameter=40 cm; Height=35 cm) mounted with an electric bell (110-120 dB). Upon activating the bell, the occurrences and latencies to wild running fits, clonic and tonic seizures were measured. The number of deaths was also recorded. An audiogenic response score was assigned to each mouse as 0 (no seizure), 1 (wild running), 2 (clonic convulsion), 3 (tonic extension), or 4 (death). The bell was activated until a tonic seizure occurred or for a maximum of 60 seconds. Ten (10) mice were studied per group. The test was performed blind. All test compounds were dissolved in 0.9% saline (vehicle) and were administered by intraperitoneal (IP) injection at a dose volume of 10 mL/kg. Vehicle alone, (R/S)-fenfluramine (15 or 30 mg/kg) or (R)-fenfluramine (30 mg/kg) were administered 60 minutes prior to seizure induction. The positive reference compound (valproate; 180 mg/kg) was administered 30 minutes prior to seizure induction.

## CC[C@@H](C(N)=O)N1CCCC1=O [levetiracetam]
MES test
  efficacy in the MES test: ineffective
6 Hz model
  ED50: 19 mg/kg

## C[C@@H](N)Cc1cccc(C(F)(F)F)c1 [(R)-norfenfluramine, (R)-1-(3-(trifluoromethyl)phenyl)propan-2-amine]
[1]
  Brain concentration: 179.6 μM and 36501 ng/g
  Plasma concentration: 17.73 μM and 3604 ng/g
CF-1 mice
  percentage of animals protected against psychomotor seizures: 50%

## C[C@H](N)Cc1cccc(C(F)(F)F)c1 [(S)-norfenfluramine, (S)-1-((3-trifluoromethyl)phenyl)propan-2-amine]
5-HT2C receptor
  5-HT2C agonist activity: potent
[2]
  NE release-promoting activity: potent
5-HT2A receptor
  5-HT2A agonist activity: potent
5-HT2B receptor
  5-HT2B agonist activity: potent

## CCCC(CCC)C(=O)O [Valproate]
DBA/2 mice; n=10
  Clonic Convulsion Incidence: 0%
  Tonic Extension Incidence: 0%
  Wild Running Incidence: 40%
DBA/2 mice; mean ± SEM, maximum 60 s
  Clonic Convulsion Latency: 60.0 ± 0.0 s
  Tonic Extension Latency: 60.0 ± 0.0 s
  Wild Running Latency: 38.1 ± 9.0 s
DBA/2 mice; score 0-4, mean ± SEM, n=10
  Audiogenic Response Score: 0.4 ± 0.16

## CC(N)Cc1cccc(C(F)(F)F)c1 (racemic) [(rac)-norfenfluramine, (R/S)-1-(3-(trifluoromethyl)phenyl)propan-2-amine]
[1]
  Brain concentration: 151.2 μM and 30718 ng/g
  Plasma concentration: 12.97 μM and 2636 ng/g
CF-1 mice
  percentage of animals protected against psychomotor seizures: 50%
CF-1 mice; summary statement
  protective activity against seizures in the 6 Hz psychomotor seizure assay: exhibited protective activity against seizures
